Measurements published in patent US11149047B2, “Aryl imidazoles for treatment of cancer” (Aptose Biosciences Inc., priority 2017, dated 2021).
Marks after values point to notes of the source that are not given here.

Legend:
Raji cells = experiment: Cytotoxicity study, MTS cell proliferation assay, 5 days; type: cell-based, human; conditions: Homo sapiens, Raji
Description: (§1) The human Burkitt lymphoma cell line Raji was obtained from the American Type Tissue Culture Collection and cultured in RPMI 1640 medium (ATCC) supplemented with 10% fetal bovine serum (ATCC,) at 37° C., 5% CO2. The COMPOUND I-resistant Raji (Raji/COMPOUND IR) cell line was generated by exposure to progressively higher concentrations of COMPOUND I over a period of 6 months. CAOV3 cells were obtained from ATCC and cultured in complete DMEM supplemented with 10% fetal bovine serum. MCF7 vector controlled and BRCA1 shRNA subclones were obtained from Dr. Simon Powell (Memorial Sloan-Kettering Cancer Center) and cultured in EMBM with 10% fetal bovine serum. MCF10A and hTERT-IMEC clones were obtained from Dr. Ben Ho Park (Johns Hopkins University). HCT116 BRCA2^+/+ cells and BRCA2^−/− cells were obtained from Dr. Samuel Aparicio (British Columbia Cancer Research Centre). PEO1 and PEO4 cells were obtained from Dr. Sharon Cantor (University of Massachusetts) and these cell lines were cultured under the same conditions as previously published. Sakai et al., Functional restoration of BRCA2 protein by secondary BRCA2 mutations in BRCA2-mutated ovarian carcinoma, Cancer Res. 2009; 69 (16):6381-6; Konishi et al., Mutation of a single allele of the cancer susceptibility gene BRCA1 leads to genomic instability in human breast epithelial cells, Proc. Natl. Acad. Sci. 2011; 108 (43):17773-8; Xu et al., CX-5461 is a DNA G-quadruplex stabilizer with selective lethality in BRCA1/2 deficient tumours, Nature Communications 2017; 8:14432, all of which are hereby incorporated by reference.
(§2) Cells were plated and treated with the indicated drugs in 96-well plates for 5 days. Cell viability was measured using CellTiter 96 AQueous one solution (MTS) cell proliferation assay purchased from Promega, and IC50 values were calculated using GraphPad Prism 6 Software.

Raji/COMPOUND IR cells = experiment: as above; type: cell-based, human; conditions: for RR (relative resistance): Raji/COMPOUND IR vs Raji; for IC50: Homo sapiens, Raji
Description: as §1, §2

[1] = system: MV4-11, EOL-1, and KG-1 AML cells; experiment: Flow cytometry for apoptosis (Annexin V / PI); type: cell-based; conditions: all cell lines, FIG. 10A
Description: Cells were treated as described above. To determine apoptosis, cells were stained with FITC-Annexin V and propidium iodide (PI; BD Pharmingen, catalog #556570) and then analyzed on BD Accuri C6 flow cytometer. To measure DNA synthesis and phases of cell cycle, treated cells were stained with 5-ethynyl-2′-deoxyuridine (Edu) Alexa Fluor 488 (Thermo Fisher Scientific, catalog #C10425) and PI (PI/RNase A staining solution, BD Biosciences, catalog #550825). The dead cells were excluded from analysis by using Live/Dead Fixable Far Red Dead Cell Stain Kit (Thermo Fisher Scientific, catalog #L34973). Staining was performed as per the manufacturers' instructions.
To investigate the mechanism by which COMPOUND I causes cell death, MV4-11, EOL-1, and KG-1 AML cells were treated with or without COMPOUND I and subjected to apoptotic marker detection by flowcytometry and Western blotting. Cells were stained with PI and Annexin V to distinguish between live (Annexin V and PI negative), early apoptotic (Annexin V positive and PI negative), late apoptotic (Annexin V and PI positive), and dead (Annexin V negative and PI positive) cells. […] COMPOUND I induced accumulation of c-PARP1 in a concentration- and time dependent manner that paralleled apoptosis induction as measured by Annexin V/PI staining (FIGS. 10B-C; FIG. 17B). […]

[2] = system: G4 sequences (telomere, MYC, KIT, rRNA oligos); experiment: Modified FRET assay, melting of G-quadruplex oligos; type: binding, human; conditions: FIG. 13C; COMPOUND I data at 6-hour incubation
Description: FRET assay and data analysis was performed as described previously and modified by using dual labeled (5′ FAM-3′ BHQ1) single-stranded oligos. Melting temperature of each oligo was assessed in the presence of vehicle DMSO or escalating concentrations of COMPOUND I, Fe(COMPOUND I)3, CX-5461, or TMPyP4 using a Roche LightCycler 96 [at 37° C. for 300 seconds followed by temperature increased in […] intervals up to 91° C. (25 steps) with 300-second total incubation time at each temperature]. Drug and oligo reaction mixes were analyzed immediately or incubated for 6 hours at room temperature and then analyzed. […] COMPOUND I data are presented for 6-hour time point.
The ability of COMPOUND I (parental monomeric form of the drug) and Fe(COMPOUND I)3 to bind and stabilize G4 sequences using a modified FRET assay was evaluated (FIGS. 21 and 22). TMPyP4, a well-known G4 ligand, and CX-5461, a clinical stage molecule recently reported to have G4-binding properties, were utilized as controls to assess the specificity of COMPOUND I and Fe(COMPOUND I)3 for G4-stabilizing activity.

[3] = animals; cited from earlier work

Cc1[nH]c2ccc(F)cc2c1-c1nc2c3cccnc3c3ncccc3c2[nH]1 [COMPOUND I, 2-(5-fluoro-2-methyl-1H-indol-3-yl)-1H-imidazo[4,5-f][1,10]phenanthroline]
IC50 (Raji cells; 120 h, parental Raji cells, growth rate during 120 h exposure): 91.9 ± 22.3 nM
IC50 (Raji cells; COMPOUND I + 5 nM Ko143): 98.3 ± 0.8 nM
IC50 (Raji cells; COMPOUND I + 50 nM Ko143): 103 ± 2.9 nM
IC50 (Raji cells; COMPOUND I alone, mean ± SEM): 105 nM
fold resistant to COMPOUND I (Raji/COMPOUND IR over sensitive Raji) (Raji/COMPOUND IR cells): 16.7±3.9 fold
RR (relative resistance) (Raji/COMPOUND IR cells; COMPOUND I + 5 nM Ko143): 10.9 ± 1.9^c
RR (relative resistance) (Raji/COMPOUND IR cells; COMPOUND I + 50 nM Ko143): 2.5 ± 0.7^a
RR (relative resistance) (Raji/COMPOUND IR cells; COMPOUND I alone): 16.7 ± 3.9^b
IC50 (Raji/COMPOUND IR cells; COMPOUND I + 5 nM Ko143, Raji/COMPOUND IR): 853 ± 44 nM
IC50 (Raji/COMPOUND IR cells; COMPOUND I + 50 nM Ko143, Raji/COMPOUND IR): 201 ± 20.7 nM
IC50 (Raji/COMPOUND IR cells; COMPOUND I alone, Raji/COMPOUND IR, mean ± SEM): 1390 ± 94 nM
IC50 (Raji/COMPOUND IR cells; Raji/COMPOUND IR cells): 1390 ± 98.5 nM
apoptotic cells at 24 hours [1]: concentration-dependent increase in apoptotic cells
stabilization of G4 sequences (ΔT1/2) [2]: time-dependent stabilization of G4 motifs, but it demonstrated the greatest propensity for stabilizing the MYC G4 sequences
myelosuppression [3]: did not produce myelosuppression
